Experimental data taken from patent publication EP4755880A1, “SUBSTITUTED NITROGEN-CONTAINING BICYCLIC COMPOUND AND USE THEREOF” (Sunshine Lake Pharma Co., Ltd., priority 2023, dated 2025).

What was measured:
[1] = test system: DLD-1 BRCA2(-/-) cells; experiment: Inhibition of proliferation of DLD-1 BRCA2(-/-) cells (CTG method); type: cell-based; details: Homo sapiens, DLD-1, 168 h; 7 days incubation, CellTiter-Glo
Summary of the method: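 DLD-1 BRCA2(-/-) cells, 1,000 per well, attached overnight, then exposed to compound at final 10000 to 0.152 nM (4-fold series) in triplicate for 7 days at 37 °C, 5% CO2. Viability by CellTiter-Glo luminescence; IC50 for proliferation inhibition from a fitted curve.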

[2] = test system: MDA-MB-436 cells; experiment: Inhibition of proliferation of MDA-MB-436 cells (CellTiter-Glo); type: cell-based; details: Homo sapiens, MDA-MB-436, 168 h, 7 days incubation
Summary of the method: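 MDA-MB-436 cells seeded at 500-1000 cells/well, allowed to attach overnight, then treated with 9 concentrations from 10000 to 0.152 nM final (4-fold steps) in triplicate for 7 days at 37°C, 5% CO2. Viability by CellTiter-Glo luminescence; IC50 from fitted curve.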

[3] = in vivo; details: BALB/c, mouse
Experimental: (§1) The compounds of the present invention were administered to test animals in the form of 5% DMSO + 30% PEG400 + 65% physiological saline, 10% DMSO + 10% Kolliphor HS15 + 80% Saline, 10% DMSO + 89% (25% SBE-B-CD) + (2% HCl), 20% PEG400 + 80% sterile water for injection, or 10% DMA+ 10% HS15 + 30% PEG400 + 50% sterile aqueous solution for injection. Animals were fasted for 12 hours before administration but had free access to water. For the intravenous administration group, the dose was 1 mg/kg. Blood samples (approximately 0.15 mL) were collected intravenously at the following time points after administration: 0.083, 0.25, 0.5, 1.0, 2.0, 4.0, 6.0, 8.0 and 24 h (dogs) or 0.083, 0.25, 0.5, 1.0, 2.0, 5.0, 7.0 and 24 h (mice and rats) or 0.083, 0.25, 0.5, 1.0, 2.0, 6.0, 8.0 and 24 h (monkeys). EDTA-K2 was pre-added to the blood collection tube as an anticoagulant. The blood samples were centrifuged at 12,000 rpm for 2 minutes, and plasma was collected and stored at -20 °C or - 70 °C. For the gavage administration group, the dosage was 1 mg/kg (mice, dogs, and monkeys) or 5 mg/kg (rats). After administration, venous blood samples (approximately 0.15 mL) were collected at the following time points: 0.25, 0.5, 1.0, 2.0, 4.0, 6.0, 8.0, and 24 h (dogs) or 0.25, 0.5, 1.0, 2.0, 5.0, 7.0, and 24 h (mice and rats) or 0.25, 0.5, 1.0, 2.0, 6.0, 8.0, and 24 h (monkeys). EDTA-K2 was pre-added to the blood collection tube as an anticoagulant. The blood samples were centrifuged at 12,000 rpm for 2 minutes, and plasma was collected and stored at -20 °C or -70 °C.
(§2) The collected plasma samples were processed (frozen plasma was thawed at room temperature, vortexed for 15 s to mix, 10-20 µL of plasma was taken, 120-150 µL of acetonitrile solution containing internal standard was added, vortexed for 5 min to mix, centrifuged at 4,000 rpm for 5 min, 100 µL of supernatant was taken, and 120-150 Ml/water (v/v = 1/1) was added and mixed). The concentration of compounds in the plasma was then analyzed by LC-MS/MS.

[4] = in vivo; details: SD, rat
Experimental: as §1, §2
(§3) Table D Pharmacokinetic parameters of compounds of the present invention in SD rats

[5] = molecular target: PARP1 (Homo sapiens, UniProt P09874); experiment: Inhibition of PARP1 enzyme activity (ELISA, chemiluminescence); type: biochemical
Experimental: Experimental Objective: To evaluate the inhibitory effect of the compounds of the present invention on the enzyme activities of PARP1 and PARP2 using ELISA.
• 1. histone-coated 384-well plates was prepared: 25 µL of histone solution was added to each well and incubated overnight at 4 °C. • 2. PBST buffer, blocking buffer (PBS buffer with 5% BSA and 0.05% Tween-20 added) and detection buffer (20 mM HEPES pH 7.5 + 100 mM NaCl + 2 mM DTT + 0.002% Tween-20 + 0.1% BSA) were prepared. • 3. The histone-coated 3 84-well plate was washed three times with PBST buffer, blocked at room temperature with 50 µL blocking buffer for 1 hour, and then washed three times with PBST buffer. • 4. Test compounds were prepared as 2000-fold stock solutions in DMSO. 50 nL of the stock solution was mixed with 19.95 µL detection buffer, and 5 µL of the gradient-diluted test compound was transferred to each well. • 5. Enzymatic reaction (PARP1): PARP1 & DNA mix was pre-incubated at 25 °C for 10 minutes. 10 µL of the PARP1 & DNA mix was added to each well and incubated with the test compound at room temperature for 10 minutes. […] Finally, the 384-well plate was washed three times with PBST buffer. Enzymatic reaction (PARP2): PARP2 was pre-incubated at 25 °C for 10 minutes. 10 µL of PARP2 was added to each well and incubated with the test compound at room temperature for 10 minutes. […] Finally, the 384-well plate was washed three times with PBST buffer. • 6. Detection (PARP1): 20 µL of anti-Poly/Mono-ADP Ribose Rabbit mAb was added and incubated at room temperature for 1.5 hours, followed by three washes of the 384-well plate with PBST buffer. Then, 20 µL of diluted anti-rabbit IgG, HRP-linked Antibody (diluted 1:2000 in blocking buffer) was added and incubated at room temperature for 1 hour. After washing the plate three times with PBST buffer, 25 µL of a 1:1 mixture of Femto-ECL Substrate A and Femto-ECL Substrate B was added. Detection (PARP2): 25 µL of Strep-HRP was added and incubated at room temperature for 1 hour, followed by three washes of the 384-well plate with PBS buffer. Then, 25 µL of a 1:1 mixture of Femto-ECL Substrate A and Femto-ECL Substrate B was added. • 7. Chemiluminescence intensity was measured using an Envision multimode microplate reader. • 8. Data Processing
The inhibition rate was calculated in Excel using formula (1). inh% = (Max−Signal)/(Max−Min)*100 [formula]
The IC50 value was obtained by fitting the data in XL-Fit using formula (2). Y = bottom + (top−bottom)/(1+(IC50/X)*HillSlope); [formula] wherein Y is the inhibition percentage and X is the compound concentration.

[6] = molecular target: PARP2 (Homo sapiens, UniProt Q9UGN5); experiment: biochemical;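 note: PARP2 enzyme ELISA on histone-coated plates, Strep-HRP detection with chemiluminescence read-out, 10 min compound preincubation with enzyme, inhibition scaled between Max and Min signal controls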
[7] = Pharmacokinetics in mice after intravenous injection or gavage; details: BALB/c, mouse, plasma
Experimental: as §1, §2

[8] = Pharmacokinetics in SD rats after intravenous injection or gavage; details: rat, plasma
Experimental: as §1, §2, §3

Sequence of PARP1 (P09874 whole entry): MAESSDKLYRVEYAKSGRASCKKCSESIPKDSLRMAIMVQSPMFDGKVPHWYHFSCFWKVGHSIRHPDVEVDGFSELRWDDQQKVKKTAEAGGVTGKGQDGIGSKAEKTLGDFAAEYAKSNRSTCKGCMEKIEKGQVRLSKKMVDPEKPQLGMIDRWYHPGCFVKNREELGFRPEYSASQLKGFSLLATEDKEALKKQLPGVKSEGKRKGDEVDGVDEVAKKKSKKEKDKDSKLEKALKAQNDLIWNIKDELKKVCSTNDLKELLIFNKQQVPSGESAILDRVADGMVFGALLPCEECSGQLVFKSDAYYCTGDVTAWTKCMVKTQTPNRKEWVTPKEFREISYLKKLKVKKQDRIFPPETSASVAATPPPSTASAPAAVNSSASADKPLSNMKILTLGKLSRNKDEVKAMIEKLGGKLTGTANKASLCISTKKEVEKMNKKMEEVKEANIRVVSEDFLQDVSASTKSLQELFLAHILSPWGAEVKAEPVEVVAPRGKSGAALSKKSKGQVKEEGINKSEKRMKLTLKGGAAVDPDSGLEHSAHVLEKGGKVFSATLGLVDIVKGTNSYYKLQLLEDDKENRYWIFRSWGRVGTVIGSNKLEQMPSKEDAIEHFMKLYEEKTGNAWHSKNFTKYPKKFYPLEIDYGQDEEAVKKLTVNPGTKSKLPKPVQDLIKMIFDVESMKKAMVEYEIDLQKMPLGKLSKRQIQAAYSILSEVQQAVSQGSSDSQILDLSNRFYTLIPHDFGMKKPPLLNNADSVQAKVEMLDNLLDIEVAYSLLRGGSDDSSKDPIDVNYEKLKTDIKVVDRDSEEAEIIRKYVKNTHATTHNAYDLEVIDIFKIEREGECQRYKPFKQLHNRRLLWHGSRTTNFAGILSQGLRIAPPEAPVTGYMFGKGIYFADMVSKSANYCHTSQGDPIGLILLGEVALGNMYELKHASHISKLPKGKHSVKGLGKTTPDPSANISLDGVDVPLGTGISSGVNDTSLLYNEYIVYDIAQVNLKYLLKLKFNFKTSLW
Sequence of PARP2 (Q9UGN5 whole entry): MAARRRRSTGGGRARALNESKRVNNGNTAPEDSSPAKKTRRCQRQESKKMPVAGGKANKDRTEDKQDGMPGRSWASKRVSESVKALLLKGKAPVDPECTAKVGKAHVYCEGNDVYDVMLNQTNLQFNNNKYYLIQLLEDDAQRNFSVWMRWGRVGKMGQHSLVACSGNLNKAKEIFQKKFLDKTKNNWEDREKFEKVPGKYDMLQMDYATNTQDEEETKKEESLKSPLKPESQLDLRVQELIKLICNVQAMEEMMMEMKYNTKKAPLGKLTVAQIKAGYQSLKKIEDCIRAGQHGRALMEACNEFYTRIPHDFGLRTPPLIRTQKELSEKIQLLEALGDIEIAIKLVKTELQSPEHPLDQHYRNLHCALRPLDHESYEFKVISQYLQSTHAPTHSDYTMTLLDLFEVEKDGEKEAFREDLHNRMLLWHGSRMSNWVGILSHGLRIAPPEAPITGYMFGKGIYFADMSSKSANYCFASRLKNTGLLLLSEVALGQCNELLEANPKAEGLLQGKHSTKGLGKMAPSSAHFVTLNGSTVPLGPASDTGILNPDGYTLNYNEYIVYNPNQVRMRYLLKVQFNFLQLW

Compound: CC#Cc1cc(CN2CC=C(c3ccc(C(=O)NC)nc3F)CC2)cc2[nH]c(=O)c(C)nc12 [Example 12, 2-fluoro-N-methyl-1'-((2-methyl-3-oxo-8-(prop-1-yn-1-yl)-3,4-dihydroquinoxalin-6-yl)methyl)-1',2',3',6'-tetrahydro-[3,4'-bipyridine]-6-carboxamide]
- IC50 [1]: 1.9 nM
- IC50 [2]: 0.6 nM
- AUC(0-t) ([3]; iv, 2 mg/kg): 1430 ng·h/mL
- Cmax ([3]; iv, 2 mg/kg): 1630 ng/mL
- half-life ([3]; iv, 2 mg/kg): 1.4 h
- AUC(0-t) ([3]; po, 5 mg/kg): 4200 ng·h/mL
- Cmax ([3]; po, 5 mg/kg): 2110 ng/mL
- half-life ([3]; po, 5 mg/kg): 1.9 h
- AUC(0-t) ([4]; iv, 1 mg/kg): 1260 ng·h/mL
- Cmax ([4]; iv, 1 mg/kg): 897 ng/mL
- half-life ([4]; iv, 1 mg/kg): 2 h
- AUC(0-t) ([4]; po, 5 mg/kg): 3770 ng·h/mL
- Cmax ([4]; po, 5 mg/kg): 922 ng/mL
- half-life ([4]; po, 5 mg/kg): 2.4 h

Compound: Cc1nc2c(OC(F)F)cc(CN3CCN(c4ccc(C(=O)NC5CC5)nc4F)CC3)cc2[nH]c1=O [Example 46, N-cyclopropyl-5-(4-((8-(ditluoromethoxy)-2-methyl-3-oxo-3,4-dihydroquinoxalin-6-yl)methyl)piperazin-1-yl)-6-fluoropicolinamide]
- IC50 ([5]; ELISA, histone-coated plate, NAD+, 60 min at 25 °C): 2.5 nM
- Selectivity PARP2/PARP1 ([5]; ratio of PARP2 IC50 to PARP1 IC50): 25.0
- IC50 [1]: 3.2 nM
- IC50 [2]: 0.2 nM
- IC50 [6]: 64 nM
- AUC(0-t) ([7]; iv, 2 mg/kg): 11300 ng·h/mL
- Cmax ([7]; iv, 2 mg/kg): 6460 ng/mL
- half-life ([7]; iv, 2 mg/kg): 1.6 h
- AUC(0-t) ([7]; po, 5 mg/kg): 25300 ng·h/mL
- Cmax ([7]; po, 5 mg/kg): 8750 ng/mL
- half-life ([7]; po, 5 mg/kg): 2 h
- AUC(0-t) ([8]; iv, 1 mg/kg): 4500 ng·h/mL
- Cmax ([8]; iv, 1 mg/kg): 1410 ng/mL
- half-life ([8]; iv, 1 mg/kg): 3.2 h
- AUC(0-t) ([8]; po, 5 mg/kg): 21200 ng·h/mL
- Cmax ([8]; po, 5 mg/kg): 2150 ng/mL
- half-life ([8]; po, 5 mg/kg): 3.4 h
